Test results reported in US4481192A, “Acid-protease inhibiting peptide derivatives” (SANOFI, priority 1982, dated 1984).
Like-named read-outs stand apart in the source and are kept apart here. Non-standard residues stand in square brackets, D forms with d. Residues, ends and D or L forms follow the SMILES beside them. *: point of attachment. X1 = COC(=O)C[C@@H](O)[C@H](CC(C)C)N*; Benzenesulfonyl = O=S(=O)(c1ccccc1)*; Benzylsulfonyl = O=S(=O)(Cc1ccccc1)*; Sta = CC(C)C[C@H](N)[C@@H](O)CC(=O)O; Butanoyl(3,3-Me2) = CC(C)(C)CC(=O)*; Hydrocinnamoyl = O=C(CCc1ccccc1)*; X2 = O=C(NCCS(=O)(=O)*)OCc1ccccc1; Isovaleryl = CC(C)CC(=O)*; Nle = CCCC[C@H](N)C(=O)O; Nva = CCC[C@H](N)C(=O)O; Cbz = O=C(OCc1ccccc1)*; Boc = CC(C)(C)OC(=O)*

What was measured:
porcine pepsin = porcine pepsin (Sus scrofa, UniProt P00791); assay: Inhibition of porcine pepsin; assay type: biochemical; settings: pH 2, substrate bovine haemoglobin, 37° C.
Description: The method used is that of TAKAAKI AOYAGI (J. Antibiotics, 24, pages 687-694, 1971). The substrate used is bovine haemoglobin and the enzyme is porcine pepsin.
0.5% strength haemoglobin is hydrolysed with pepsin (1 mcg/ml) at 37° C. in 0.02M KCl-HCl buffer at pH 2.
Preincubation takes place for 3 minutes, followed by incubation for 25 minutes. After precipitation of the proteins with 1.7M perchloric acid, the optical density of the supernatant is determined on a spectrophotometer at 280 nm.
The results are expressed as the percentage inhibition of the maximum optical density obtained in the absence of inhibitor. They are also expressed as an IC50.
(§1) A 10^-3 M stock solution of the peptide is made up in a mixture containing equal volumes of a solution A (19 ml of methanol+1 ml of acetic acid) and a solution B (4 ml of methanol+2 ml of sodium hydroxide solution).
(§2) The subsequent dilutions of the peptide are then prepared in the appropriate buffer in accordance with the procedures described above.

[1] = molecular target: T1, human plasma renin activity (Homo sapiens, UniProt P00797); assay: Inhibition of the human plasma renin activity (P.R.A.); assay type: biochemical; settings: 37° C., pool of human plasma
T1 construct: the human plasma contain and the substrate: angiotensinogen, and the enzyme: renin; from tissue; host or cells: pool of human plasma
T1 sequence (P00797 67-406): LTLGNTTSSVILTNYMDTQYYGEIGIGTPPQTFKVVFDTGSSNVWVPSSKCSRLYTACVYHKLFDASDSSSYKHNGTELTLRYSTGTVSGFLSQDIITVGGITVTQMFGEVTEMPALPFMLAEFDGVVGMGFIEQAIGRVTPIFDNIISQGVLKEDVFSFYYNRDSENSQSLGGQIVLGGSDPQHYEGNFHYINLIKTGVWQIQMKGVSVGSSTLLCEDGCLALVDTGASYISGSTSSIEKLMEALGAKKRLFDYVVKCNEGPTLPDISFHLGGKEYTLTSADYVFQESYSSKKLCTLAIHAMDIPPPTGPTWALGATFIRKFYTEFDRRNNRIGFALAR
Description: The angiotensin I released during the reaction (the human plasma contain and the substrate: angiotensinogen, and the enzyme: renin) is measured by radioimmunological determination using a kit.
Of course, an inhibitor of the enzyme for conversion of the PMSF (phenylmethylsulphonyl fluoride) is added to the incubation medium.
Two types of experiments were carried out:
one at pH 6, which is the optimum pH for the enzyme reaction with human renin (maleate buffer, incubation: 30 minutes), and
the other at pH 7.4, which is the physiological pH (phosphate buffer, incubation: 60 minutes).
as §1, §2

[2] = pH 6, maleate buffer, incubation 30 minutes, read-out: INHIBITION OF HUMAN P.R.A. (IC50) pH 6
[3] = pH 7.4, phosphate buffer, incubation 60 minutes, read-out: INHIBITION OF HUMAN P.R.A. (IC50) pH 7.4

Chain of porcine pepsin (P00791 60-385): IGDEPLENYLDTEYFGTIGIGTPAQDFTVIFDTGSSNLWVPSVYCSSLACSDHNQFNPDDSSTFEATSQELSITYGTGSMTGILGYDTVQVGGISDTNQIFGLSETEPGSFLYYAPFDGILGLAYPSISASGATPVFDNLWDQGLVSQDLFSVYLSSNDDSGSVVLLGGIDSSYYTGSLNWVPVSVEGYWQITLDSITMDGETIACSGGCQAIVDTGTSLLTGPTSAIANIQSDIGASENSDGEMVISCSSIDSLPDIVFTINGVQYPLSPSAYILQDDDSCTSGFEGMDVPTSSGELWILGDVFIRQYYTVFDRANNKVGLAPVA

| SMILES | IC50 (porcine pepsin) [nM] | IC50 [1, 2] [nM] | IC50 [1, 3] [nM] |
| --- | --- | --- | --- |
| COC(=O)C[C@H](O)[C@H](CC(C)C)NC(=O)[C@H](C)NC(=O)C[C@H](O)[C@H](CC(C)C)NC(=O)[C@H](Cc1ccccc1)NC(=O)[C@@H](Cc1ccccc1)NC(=O)OC(C)(C)C [SR 41518, Boc--(D)Phe--Phe--Sta--Ala--Sta--OMe] (Boc-[dF]F[Sta]A[Sta]-OMe) | 480 | 950 | – |
| COC(=O)C[C@@H](O)[C@H](CC(C)C)NC(=O)[C@H](C)NC(=O)C[C@H](O)[C@H](CC(C)C)NC(=O)[C@H](Cc1ccccc1)NC(=O)[C@H](Cc1ccccc1)NC(=O)CC(C)C [SR 41766, iVa--Phe--Phe--Sta--Ala--isoSta--OMe] (Isovaleryl-FF[Sta]A-X1) | 58 | 14 | 420 |
| COC(=O)C[C@H](O)[C@H](CC(C)C)NC(=O)[C@H](C)NC(=O)C[C@H](O)[C@H](CC(C)C)NC(=O)[C@H](CC(C)C)NC(=O)[C@H](Cc1ccccc1)NC(=O)CC(C)C [SR 41765, iVa--Phe--Leu--Sta--Ala--Sta--OMe] (Isovaleryl-FL[Sta]A[Sta]-OMe) | 8 | 0.33 | 75 |
| COC(=O)C[C@H](O)[C@H](CC(C)C)NC(=O)[C@H](C)NC(=O)C[C@H](O)[C@H](CC(C)C)NC(=O)[C@H](Cc1ccccc1)NC(=O)[C@H](Cc1ccccc1)NS(=O)(=O)c1ccccc1 [SR 41938, C6 H5 SO2 --Phe--Phe--Sta--Ala--Sta--OCH3] (Benzenesulfonyl-FF[Sta]A[Sta]-OMe) | 63 | 1.6 | 440 |
| CC(C)C[C@H](NC(=O)[C@H](C)NC(=O)C[C@H](O)[C@H](CC(C)C)NC(=O)[C@H](Cc1ccccc1)NC(=O)[C@H](Cc1ccccc1)NC(=O)OCc1ccccc1)[C@@H](O)CC(=O)O [SR 41225, Z--Phe--Phe--Sta--Ala--Sta--OH] (Cbz-FF[Sta]A[Sta]-OH) | 90 | 70 | 1000 |
| COC(=O)C[C@H](O)[C@H](CC(C)C)NC(=O)[C@H](C)NC(=O)C[C@H](O)[C@H](CC(C)C)NC(=O)[C@H](Cc1c[nH]c2ccccc12)NC(=O)[C@H](Cc1ccccc1)NC(=O)OCc1ccccc1 [SR 41416, Z Phe--Trp--Sta--Ala--Sta--OMe] (Cbz-FW[Sta]A[Sta]-OMe) | 65 | 80 | 1400 |
| COC(=O)C[C@H](O)[C@H](CC(C)C)NC(=O)[C@H](C)NC(=O)C[C@H](O)[C@H](CC(C)C)NC(=O)[C@H](Cc1ccccc1)NC(=O)[C@H](Cc1ccccc1)NC(=O)CCc1ccccc1 [SR 41768, C6 H5 CH2 CH2 CO--Phe--Phe--Sta--Ala--Sta--OMe] (Hydrocinnamoyl-FF[Sta]A[Sta]-OMe) | 42 | 50 | 1000 |
| COC(=O)C[C@H](O)[C@H](CC(C)C)NC(=O)[C@H](C)NC(=O)C[C@H](O)[C@H](CC(C)C)NC(=O)[C@@H](NC(=O)[C@@H](Cc1ccccc1)NC(=O)OC(C)(C)C)C(C)C [SR 41377, Boc--(D)Phe--Val--Sta--Ala--Sta--OCH3] (Boc-[dF]V[Sta]A[Sta]-OMe) | 47 | – | – |
| CC[C@H](C)[C@H](NC(=O)[C@H](Cc1ccccc1)NC(=O)OCc1ccccc1)C(=O)N[C@@H](CC(C)C)[C@@H](O)CC(=O)N[C@@H](C)C(=O)N[C@@H](CC(C)C)[C@@H](O)CC(=O)OC [SR 41477, Z--Phe--ILe--Sta--Ala--Sta--OMe] (Cbz-FI[Sta]A[Sta]-OMe) | 38 | 35 | 1000 |
| COC(=O)C[C@H](O)[C@H](CC(C)C)NC(=O)[C@H](C)NC(=O)C[C@H](O)[C@H](CC(C)C)NC(=O)[C@H](Cc1ccccc1)NC(=O)[C@H](Cc1ccccc1)NC(=O)OCc1ccccc1 [SR 41320, Z--Phe--Phe--Sta--Ala--Sta--OMe] (Cbz-FF[Sta]A[Sta]-OMe) | 30 | 17 | 3500 |
| COC(=O)C[C@H](O)[C@H](CC(C)C)NC(=O)[C@H](C)NC(=O)C[C@H](O)[C@H](CC(C)C)NC(=O)[C@H](Cc1c[nH]cn1)NC(=O)[C@H](Cc1ccccc1)NS(=O)(=O)CCNC(=O)OCc1ccccc1 [SR 41748, Z--Tau--Phe--His--Sta--Ala--Sta--OCH3] (X2-FH[Sta]A[Sta]-OMe) | 620 | 2.2 | 110 |
| COC(=O)C[C@H](O)[C@H](CC(C)C)NC(=O)[C@H](C)NC(=O)C[C@H](O)[C@H](CC(C)C)NC(=O)[C@H](Cc1ccccc1)NC(=O)[C@H](Cc1ccccc1)NC(=O)CC(C)C [SR 41764, iVa--Phe--Phe--Sta--Ala--Sta--OMe] (Isovaleryl-FF[Sta]A[Sta]-OMe) | 42 | 12 | 310 |

Second part, the compound after the results:

| IC50 (porcine pepsin) [nM] | IC50 [1, 2] [nM] | IC50 [1, 3] [nM] | SMILES |
| --- | --- | --- | --- |
| 27 | 52 | 2600 | COC(=O)C[C@H](O)[C@H](CC(C)C)NC(=O)[C@H](C)NC(=O)C[C@H](O)[C@H](CC(C)C)NC(=O)[C@H](CCCCNC(=O)OCc1ccccc1)NC(=O)[C@H](Cc1ccccc1)NC(=O)CC(C)C [SR 42130, iVa--Phe--Lys(Z)--Sta--Ala--Sta--OMe] (Isovaleryl-FK(Cbz)[Sta]A[Sta]-OMe) |
| 36 | 17 | 880 | COC(=O)C[C@H](O)[C@H](CC(C)C)NC(=O)[C@H](C)NC(=O)C[C@H](O)[C@H](CC(C)C)NC(=O)[C@H](Cc1ccccc1)NC(=O)[C@H](Cc1ccccc1)NS(=O)(=O)Cc1ccccc1 [SR 41939, C6 H5 CH2 SO2 --Phe--Phe--Sta--Ala--Sta--OCH3] (Benzylsulfonyl-FF[Sta]A[Sta]-OMe) |
| 13 | 0.76 | 260 | CCC[C@H](NC(=O)[C@H](Cc1ccccc1)NC(C)=O)C(=O)N[C@@H](CC(C)C)[C@@H](O)CC(=O)N[C@@H](C)C(=O)N[C@@H](CC(C)C)[C@@H](O)CC(=O)OC [SR 41994, Ac--Phe--Nva--Sta--Ala--Sta--OMe] (Ac-F[Nva][Sta]A[Sta]-OMe) |
| – | 0.0011 | 51 | CCC[C@H](NC(=O)[C@H](Cc1ccccc1)NC(=O)OC(C)(C)C)C(=O)N[C@@H](CC(C)C)[C@@H](O)CC(=O)N[C@@H](C)C(=O)N[C@@H](CC(C)C)[C@@H](O)CC(=O)OC [SR 41996, Boc--Phe--Nva--Sta--Ala--Sta--OMe] (Boc-F[Nva][Sta]A[Sta]-OMe) |
| 73 | 110 | – | CC[C@H](C)[C@H](NC(=O)OC(C)(C)C)C(=O)N[C@@H](Cc1c[nH]cn1)C(=O)N[C@@H](CC(C)C)[C@@H](O)CC(=O)N[C@@H](C)C(=O)N[C@@H](CC(C)C)[C@@H](O)CC(=O)OC [SR 42019, Boc--Ile--His--Sta--Ala--Sta--OMe] (Boc-IH[Sta]A[Sta]-OMe) |
| 27 | 26 | 480 | COC(=O)C[C@H](O)[C@H](CC(C)C)NC(=O)[C@H](C)NC(=O)C[C@H](O)[C@H](CC(C)C)NC(=O)[C@H](Cc1ccccc1)NC(=O)[C@H](Cc1ccccc1)NC(=O)CC(C)(C)C [SR 42256, t--BuAc--Phe--Phe--Sta--Ala--Sta--OMe] ({Butanoyl(3,3-Me2)}-FF[Sta]A[Sta]-OMe) |
| 16 | 0.03 | 42 | CCC[C@H](NC(=O)[C@H](Cc1ccccc1)NC(=O)CC(C)C)C(=O)N[C@@H](CC(C)C)[C@@H](O)CC(=O)N[C@@H](C)C(=O)N[C@@H](CC(C)C)[C@@H](O)CC(=O)OC [SR 41995, iVa--Phe--Nva--Sta--Ala--Sta--OMe] (Isovaleryl-F[Nva][Sta]A[Sta]-OMe) |
| 19 | – | – | CCCC[C@H](NC(=O)[C@H](Cc1ccccc1)NC(=O)CC(C)C)C(=O)N[C@@H](CC(C)C)[C@@H](O)CC(=O)N[C@@H](C)C(=O)N[C@@H](CC(C)C)[C@@H](O)CC(=O)O [SR 42128, iVa--Phe--Nle--Sta--Ala--Sta--OH] (Isovaleryl-F[Nle][Sta]A[Sta]-OH) |
